Results from patent US4725578A, “Compounds having therapeutic effect and the preparation thereof” (Tobishi Pharmaceutical Co., Ltd., priority 1986, dated 1988).

System: P-388 cells
Experiment: Antineoplastic action against implanted P-388 cells (ip-ip), survival T/C
Assay type: in vivo, CDFl mice
Conditions: for T/C % (Treatment/Control %): Table 6, P388, intraperitoneal
Protocol: To the peritoneal cavity of each group of mice consisting of six CDFl mice per group, 10^6 /0.1 ml of P-388 cells or 10^5 /0.1 ml of L-1210 cells were implanted. […]
In the Table, the symbol T/C % means Treatment/Control %, that is the increase in life when the control is 100. […] This method is used in the screening of U.S. National Cancer Institute.
In Table 7, the symbol "i.P.-i.P." means that the tumor cells are implanted intraperitoneally and the compounds being tested are also administered intraperitoneally. The symbol "TR" is the therapeutic ratio obtained by dividing the dose which provides a maximum T/C value, by the dose which provides a minimum T/C value.

CCCC(=O)Oc1ccc2cc1Oc1ccc(cc1)CC1C(=O)N(C)C(C2)C(=O)NC(C)C(=O)NC(C)C(=O)N(C)C(Cc2ccc(OC)cc2)C(=O)NC(C)C(=O)N1C (centres unmarked) [Ex. 24]
T/C % (Treatment/Control %) (dose 0.05 mg/kg): 125.1%
T/C % (Treatment/Control %) (dose 0.5 mg/kg): 144.2%
T/C % (Treatment/Control %) (dose 2 mg/kg): 155.9%
T/C % (Treatment/Control %) (dose 10 mg/kg): 170.0%

COc1ccc(CC2C(=O)NC(C)C(=O)N(C)C3Cc4ccc(cc4)Oc4cc(ccc4OC(=O)C(C)C)CC(C(=O)NC(C)C(=O)NC(C)C(=O)N2C)N(C)C3=O)cc1 (centres unmarked) [Ex. 25]
T/C % (Treatment/Control %) (dose 0.05 mg/kg): 124.1%
T/C % (Treatment/Control %) (dose 0.5 mg/kg): 150.7%
T/C % (Treatment/Control %) (dose 2 mg/kg): 155.9%
T/C % (Treatment/Control %) (dose 10 mg/kg): 183.5%

CC=CC(=O)Oc1ccc2cc1Oc1ccc(cc1)CC1C(=O)N(C)C(C2)C(=O)NC(C)C(=O)NC(C)C(=O)N(C)C(Cc2ccc(OC)cc2)C(=O)NC(C)C(=O)N1C (centres unmarked) [Ex. 26]
T/C % (Treatment/Control %) (dose 0.05 mg/kg): 124.1%
T/C % (Treatment/Control %) (dose 0.5 mg/kg): 148.5%
T/C % (Treatment/Control %) (dose 2 mg/kg): 162.3%
T/C % (Treatment/Control %) (dose 10 mg/kg): 186.6%

CCCCC(=O)Oc1ccc2cc1Oc1ccc(cc1)CC1C(=O)N(C)C(C2)C(=O)NC(C)C(=O)NC(C)C(=O)N(C)C(Cc2ccc(OC)cc2)C(=O)NC(C)C(=O)N1C (centres unmarked) [Ex. 27]
T/C % (Treatment/Control %) (dose 0.05 mg/kg): 117.9%
T/C % (Treatment/Control %) (dose 0.5 mg/kg): 149.5%
T/C % (Treatment/Control %) (dose 2 mg/kg): 157.9%
T/C % (Treatment/Control %) (dose 10 mg/kg): 171.6%

COc1ccc(CC2C(=O)NC(C)C(=O)N(C)C3Cc4ccc(cc4)Oc4cc(ccc4OC(=O)CCC(C)C)CC(C(=O)NC(C)C(=O)NC(C)C(=O)N2C)N(C)C3=O)cc1 (centres unmarked) [Ex. 40, 4-methyl valerate]
T/C % (Treatment/Control %) (dose 0.05 mg/kg): 111.6%
T/C % (Treatment/Control %) (dose 0.5 mg/kg): 133.9%
T/C % (Treatment/Control %) (dose 2 mg/kg): 152.1%

CCC(C)CC(=O)Oc1ccc2cc1Oc1ccc(cc1)CC1C(=O)N(C)C(C2)C(=O)NC(C)C(=O)NC(C)C(=O)N(C)C(Cc2ccc(OC)cc2)C(=O)NC(C)C(=O)N1C (centres unmarked) [Ex. 42]
T/C % (Treatment/Control %) (dose 0.05 mg/kg): 114.6%
T/C % (Treatment/Control %) (dose 0.5 mg/kg): 140.0%
T/C % (Treatment/Control %) (dose 2 mg/kg): 159.2%

CCCC(C)C(=O)Oc1ccc2cc1Oc1ccc(cc1)CC1C(=O)N(C)C(C2)C(=O)NC(C)C(=O)NC(C)C(=O)N(C)C(Cc2ccc(OC)cc2)C(=O)NC(C)C(=O)N1C (centres unmarked) [Ex. 43]
T/C % (Treatment/Control %) (dose 0.05 mg/kg): 116.6%
T/C % (Treatment/Control %) (dose 0.5 mg/kg): 142.0%
T/C % (Treatment/Control %) (dose 2 mg/kg): 154.2%

CCCC=CC(=O)Oc1ccc2cc1Oc1ccc(cc1)CC1C(=O)N(C)C(C2)C(=O)NC(C)C(=O)NC(C)C(=O)N(C)C(Cc2ccc(OC)cc2)C(=O)NC(C)C(=O)N1C (centres unmarked) [Ex. 44]
T/C % (Treatment/Control %) (dose 0.05 mg/kg): 116.6%
T/C % (Treatment/Control %) (dose 0.5 mg/kg): 150.1%
T/C % (Treatment/Control %) (dose 2 mg/kg): 165.3%

CCC=CCC(=O)Oc1ccc2cc1Oc1ccc(cc1)CC1C(=O)N(C)C(C2)C(=O)NC(C)C(=O)NC(C)C(=O)N(C)C(Cc2ccc(OC)cc2)C(=O)NC(C)C(=O)N1C (centres unmarked) [Ex. 45]
T/C % (Treatment/Control %) (dose 0.05 mg/kg): 121.7%
T/C % (Treatment/Control %) (dose 0.5 mg/kg): 145.0%
T/C % (Treatment/Control %) (dose 2 mg/kg): 162.3%

CO[C@@]12[C@H](COC(N)=O)C3=C(C(=O)C(C)=C(N)C3=O)N1C[C@@H]1N[C@@H]12 [Mitomycin, reference compound]
T/C (additional tests, P 388 (ip-ip), 0.5 mg/kg × 5, single agent): 198.2%
